The values that follow come from paper PMC3926802 (Molecular pharmaceutics, 2012).

The term Solubility denotes the concentration that dissolves in the medium under given conditions. Low readings indicate little dissolved substance, high ones much dissolved substance. By solubility is commonly meant the dissolved amount per volume that the medium holds. Low readings indicate little dissolved substance, high ones much dissolved substance.

Data set [1] can be described thus: Thermodynamic solubility in water for injection. It counts as physicochemical. The following applies: for Solubility: water for injection (pH 6.4), 37 °C, 6 hours.
The next data set in a line: Buffer. It counts as physicochemical. The following applies: buffer (pH 7.4), 37°C, 24 hours.
Data set [2] can be described thus: In vivo tissue distribution and bioconversion after topical eye drop. The arrangement: species or system pigmented rabbits.
A short description of another data set: Log D. The following applies: n-octanol and PBS buffer (pH 7.4), 37 °C; mean ± SD, n = 3.
Data set [3] is described as follows: In vitro transport across SCRPE. The following applies: for Cumulative % transport compared with GFX, SCRPE / Fold improvement in permeability compared to GFX, SCRPE: 200 μM donor; for Cumulative % transport compared with GFX, SCRPE: no inhibitor; for Fold improvement in permeability compared to GFX, SCRPE: pH 7.4, 37 °C; for GFX levels formed in the prodrug group, SCRPE: during in vitro transport study.

The nature of data set [4]: In vitro transport across cornea. The following applies: for Cumulative % transport compared with GFX, cornea / Fold improvement in permeability compared to GFX, cornea: 200 μM donor; for Cumulative % transport compared with GFX, cornea: no inhibitor; for Fold improvement in permeability compared to GFX, cornea: pH 7.4, 37 °C; for GFX levels formed in the prodrug group, cornea: during in vitro transport study.

Data set [5] can be described thus: In vitro transport across conjunctiva. To be noted: for Cumulative % transport compared with GFX, conjunctiva / Fold improvement in permeability compared to GFX, conjunctiva: 200 μM donor; for Cumulative % transport compared with GFX, conjunctiva: no inhibitor; for Fold improvement in permeability compared to GFX, conjunctiva: pH 7.4, 37 °C; for GFX levels formed in the prodrug group, conjunctiva: during in vitro transport study.

The conditions of data set [6]: cited from earlier work.
For data set [7] the following is noted: cited from earlier work. The source holds these as a separate data set.
Setting [8] is: 1 hour after topical dose of DMAP-GFX.
Where [9] appears, read: MPP+ (500 μM), OCT inhibitor, versus no inhibitor.
Setting [10] is: absence of OCT inhibitor MPP+, printed as compared to GFX.
[11] abbreviates: α-methyl-DL-tryptophan, ATB (0, +) inhibitor, versus no inhibitor.
Setting [12] is: topical eye drop dosing in rabbits.

Values joined by “and” are separate entries in the source; they are usually repeats but may differ in a detail not shown here. Identical values can stand only once. Like-named read-outs stand apart in the source and are kept apart here.

For `COc1c(N2CCNC(C)C2)c(F)cc2c(=O)c(C(=O)NCCCC(=O)O)cn(C3CC3)c12` (racemic) [CP-GFX, (±)-4-(1-cyclopropyl-6-fluoro-8-methoxy-7-(3-methylpiperazin-1-yl)-4-oxo-1,4-dihydroquinoline-3-carboxamido)butanoic acid], the “Log D (pH 7.4)” value is on record as 0.11 ± 0.01. For the same compound, in data set [1] (mean ± SD, n = 3), the “Solubility” value was 3010 ± 200 µg/mL. Moreover, the “GFX formed from prodrug” value in “Buffer” was 8.63%.

Take `COc1c(N2CCNC(C)C2)c(F)cc2c(=O)c(C(=O)NCCCN(C)C)cn(C3CC3)c12` (racemic) [DMAP-GFX, (±)-1-cyclopropyl-N-(3-(dimethylamino)propyl)-6-fluoro-8-methoxy-7-(3-methylpiperazin-1-yl)-4-oxo-1,4-dihydroquinoline-3-carboxamide]: the “Fold higher solubility than CP-GFX” value in data set [1] (compared to CP-GFX (6.0 mM)) was determined as 12 fold. The “Fold greater solubility than GFX” value in [1] (compared to GFX) is on record as 12.8 fold. For the same compound, the “Solubility” value in [1] is 72 mM. Moreover, the “Solubility” value in data set [1] (mean ± SD, n = 3) is 33260 ± 3000 µg/mL. For the same compound, in the data set “Buffer”, the “GFX formed from prodrug” value amounted to 9.51%. In addition, in [2] (setting [8]), the “Formed drug (GFX) levels as % of the total drug, CRPE” value was determined as 13%; the “Formed drug (GFX) levels as % of the total drug, conjunctiva” value is 70%; the “Formed drug (GFX) levels as % of the total drug, cornea” value stood at 8%; the “Formed drug (GFX) levels as % of the total drug, iris-ciliary body” value is listed as 24%. In addition, in [2] (setting [8]), the “Formed drug (GFX) levels as % of the total drug, retina” value was found to be 55%; the “Formed drug (GFX) levels as % of the total drug, sclera” value is 29%; the “Formed drug (GFX) levels as % of the total drug, vitreous humor” value stood at 60%. In data set [2] (1 hour after topical eye drop, tissues other than vitreous humor and CRPE), the “Drug levels in the remaining tissues, prodrug versus drug group” value is “not significantly different”. For the same compound, in “Log D”, the “Log D (pH 7.4)” value came out at 0.05 ± 0.01. In addition, in data set [3], the “Cumulative % transport compared with GFX, SCRPE” value is “significantly higher than GFX”; the “Fold improvement in permeability compared to GFX, SCRPE” value is 1.9 fold and 1.95 fold; the “GFX levels formed in the prodrug group, SCRPE” value was “below the detection limits”. The “Cumulative % transport in the presence of MPP+, SCRPE” value in data set [3] (setting [9]) is reported as “significantly lower”. In addition, the “Permeability in the absence of inhibitor, fold higher, SCRPE” value in [3] (setting [10]) amounted to 2.06 fold. Besides, in [4], the “Cumulative % transport compared with GFX, cornea” value was “significantly higher than GFX”; the “Fold improvement in permeability compared to GFX, cornea” value is 1.4 fold and 1.42 fold; the “GFX levels formed in the prodrug group, cornea” value was “below the detection limits”. Further, in data set [4] (setting [9]), the “Cumulative % transport in the presence of MPP+, cornea” value is recorded as “significantly lower”. Moreover, in data set [4] (setting [10]), the “Permeability in the absence of inhibitor, fold higher, cornea” value is 1.42 fold. Also, in data set [5], the “Cumulative % transport compared with GFX, conjunctiva” value was “significantly higher than GFX”; the “Fold improvement in permeability compared to GFX, conjunctiva” value was 1.8 fold and 1.85 fold; the “GFX levels formed in the prodrug group, conjunctiva” value is “below the detection limits”. The “Cumulative % transport in the presence of MPP+, conjunctiva” value in [5] (setting [9]) was “significantly lower”.

Consider `COc1c(N2CCN(C(=O)[C@@H](N)CC(C)C)C(C)C2)c(F)cc2c(=O)c(C(=O)O)cn(C3CC3)c12` (some centres unmarked) [APM-GFX], for which the “Solubility” value in data set [1] was found to be 4 mM. Further, in data set [1] (mean ± SD, n = 3), the “Solubility” value is 2160 ± 300 µg/mL. Besides, in “Buffer”, the “GFX formed from prodrug” value came out at 8.97%. Moreover, the “Log D (pH 7.4)” value in the data set “Log D” came to 1.04 ± 0.02. In addition, in data set [3], the “Cumulative % transport compared with GFX, SCRPE” value was “did not show any improvement”; the “Fold improvement in permeability compared to GFX, SCRPE” value is reported as “did not show any improvement”; the “GFX levels formed in the prodrug group, SCRPE” value is on record as “below the detection limits”. In addition, in data set [3] (setting [11]), the “Transport in the presence of α-methyl-DL-tryptophan, SCRPE” value is listed as “did not show any change”. Moreover, in data set [4], the “Cumulative % transport compared with GFX, cornea” value was “did not show any improvement”; the “Fold improvement in permeability compared to GFX, cornea” value is given as “did not show any improvement”; the “GFX levels formed in the prodrug group, cornea” value is listed as “below the detection limits”. Besides, the “Transport in the presence of α-methyl-DL-tryptophan, cornea” value in [4] (setting [11]) is “did not show any change”. Also, in [5], the “Cumulative % transport compared with GFX, conjunctiva” value is recorded as “did not show any improvement”; the “Fold improvement in permeability compared to GFX, conjunctiva” value is on record as “did not show any improvement”; the “GFX levels formed in the prodrug group, conjunctiva” value is recorded as “below the detection limits”. Also, the “Transport in the presence of α-methyl-DL-tryptophan, conjunctiva” value in data set [5] (setting [11]) is on record as “did not show any change”.

For the compound `COc1c(N2CCNC(C)C2)c(F)cc2c(=O)c(C(=O)O)cn(C3CC3)c12` (centres unmarked) [GFX, Gatifloxacin sesquihydrate], the solubility at 6 h in data set [1] (water for injection, pH 6.4) is 2600 µg/mL and 7000 µM. In addition, the “pKa, carboxylic acid (reported)” value in data set [6] is 5.94. Further, in data set [7] (single eye drop, pigmented rabbits), the “Tmax in vitreous humor” value was 60 min. In data set [7] (setting [12]), the “Tmax, conjunctiva” value is 4.98 min; the “Tmax, plasma” value is 4.98 min; the “Tmax, tear fluid” value is 4.98 min.
